Measurements reported in publication PMC10460844, “Real‐Time Monitoring of Multitarget Antimicrobial Mechanisms of Peptoids Using Label‐Free Imaging with Optical Diffraction Tomography” (Advanced Science, 2023).
Converted amounts (≈) assume the structure as drawn. Structures can show the parent of a compound that is named as a salt. Where two headings read alike, the source gives them in different places. Square brackets hold non-standard residues; d marks the D form. Peptide text beside a SMILES is read from it. Nspe = C[C@H](NCC(=O)O)c1ccccc1; Nlys = NCCCCNCC(=O)O

Assays:
E. coli ATCC 25922 [1] = format: cell-based, Escherichia coli; settings: mean of triplicate
Protocol: (§1) The antibacterial activity of the peptoids was evaluated against gram‐positive (Staphylococcus aureus, ATCC 25 923) and gram‐negative (Escherichia coli, ATCC 25 922) bacteria. […] The MIC of each peptoid was determined using a broth dilution assay. For each assay, the primary culture of either S. aureus or E. coli was grown overnight in cation‐adjusted Mueller Hinton broth 2 (MHB2) media at 37 °C with shaking. A secondary culture was prepared the next day, grown for 3–4 h, and then diluted in MHB2 media with a final concentration of 0.001% acetic acid and 0.02% bovine serum albumin to obtain a calculated optical density (OD) of 0.001. This corresponded to ≈2–5 × 10^5 colony‐forming units (CFU mL^−1) of bacteria. Using 96‐well polypropylene plates (Eppendorf, Hamburg, Germany), 100 µL of 2–5 × 10^5 CFU mL^−1 bacteria were added in triplicate for each peptoid. Each peptoid was assayed at six different concentrations in two‐fold serial dilutions. The maximum peptoid concentration was 25 µM. […] The MIC value determination was performed in triplicate. The MIC was defined as the lowest peptoid concentration that prevented turbidity during visual inspection.

S. aureus ATCC 25923 = format: cell-based, Staphylococcus aureus
Protocol: as §1

rat erythrocytes = test: Hemolysis assay; format: cell-based
Summary of the method: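 Washed Sprague-Dawley rat erythrocytes (10% suspension in PBS pH 7.4) mixed with peptoids (0–100 µM), 60 min at 37 °C; supernatant A540 expressed as % of 1% Triton X-100 lysis. HC10/HC50 are concentrations giving 10%/50% hemolysis; Hmax is hemolysis at 100 µM.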

[2] = test system: MRC-5 human lung fibroblast cells; format: cell-based; settings: Table S3, counter-ion exchange series; MTS assay, 24 h
Protocol: 4. Cell culture and cytotoxicity test using MTS assay
(Seoul, South Korea), human keratinocytes (HaCaT) were provided by the Skin Research Institute R&D Center of Amore Pacific Company (Yongin, South Korea). All cells were grown in Dulbecco's modified Eagle’s medium (DMEM) supplemented with 10% fetal bovine serum at 37 °C in an atmosphere containing 5% CO2. The 3-(4,5-dimethylthiazol-2- […]
assays were used to determine the effects of peptoids on cell growth.[4] Aliquots (100 µL) of media containing 1.3×10^4 MRC-5 cells/mL or 3×10^4 HaCaT cells/mL were distributed into each well of a 96-well plate (Eppendorf, Hamburg, Germany). The cells were allowed to attach and were grown in a humidified atmosphere containing 5% CO2 at 37 °C for 24 h.
When the cell density reached approximately 70% confluency, the medium was replaced with serial dilutions of the peptoid stock in DMEM and incubated for an additional 24 h. At this point, 20 µL of the CellTiter 96 aqueous non-radioactive cell proliferation assay reagent (Promega, Madison, WI, USA), which contains the tetrazolium compound, was added to each well. Plates were incubated for 4 h at 37 °C to allow time for metabolism. The MTS-formazan products in viable cells were measured at 490 nm using a microplate reader, and the percentage of cell viability (%) was calculated by comparing readings to the values of untreated wells. Percentage values of cell viability were calculated as A/(A control)×100, where A is the absorbance of the test well and A control is the average absorbance of wells containing untreated cells. […]

[3] = Analytical reversed-phase HPLC elution (hydrophobicity); format: physicochemical; settings: Table 1; analytical RP-HPLC, SunFire C18 […] 250 mm, water/ACN + 0.1% TFA, 5% B 2 min then linear to 100% B over 30 min, 1 mL/min, UV 220 nm; used as measure of hydrophobicity
Summary of the method: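 Analytical reversed-phase HPLC on a C18 column (4.6 × 250 mm, 5 μm) at 1 mL/min, water/acetonitrile each with 0.1% TFA. Held at 5% B for 2 min, then linear to 100% B over 30 min and held 5 min, with UV detection at 220 nm; retention time (tR) serves as hydrophobicity measure.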

E. faecium KCTC 13225 = format: cell-based; settings: KCTC 13225
E. faecalis KCTC 3511 = format: cell-based; settings: KCTC 3511
S. typhimurium SL 1344 = format: cell-based; settings: SL 1344
E. coli ATCC 25922 [4] = test: NPN uptake assay (outer membrane); format: cell-based; settings: E. coli ATCC 25922, 5 mM HEPES pH 7.2, 10 µM NPN, fluorescence
Protocol: 14. In vitro biological assays […]
The ability of peptoids to increase the permeability of the outer membrane of Gram-negative bacteria was determined by measuring the incorporation of the NPN fluorescent dye into the outer membrane of E. coli ATCC 25922. Bacterial cells were suspended to a final concentration of OD600 = 0.05 in 5 mM HEPES buffer, pH 7.2, containing 5 mM KCN. Then […]
200 μL NPN dye was added to wells of a 96 well plate to produce a final concentration of 10 μM, and the background fluorescence was recorded (λex = 350 nm, λem = 420 nm). Aliquots of peptoids were added to the well, and fluorescence was recorded as a function of time until there was no further increase in fluorescence. Increases of the permeability of the outer membrane after the addition of peptoids was reflected by increased fluorescence values as a result of NPN incorporation into the membrane. […]

E. coli ML-35 cells = test: ONPG hydrolysis assay (inner membrane); format: cell-based; settings: 1.5 mM ONPG, 10 mM sodium phosphate pH 7.4, absorbance 405 nm
Protocol: The permeability of the inner membrane was determined using E. coli ML-35 cells […]
The intact bacterial inner membrane is non-permeable to o-nitrophenyl-β-D-galactopyranoside (OPNG), a chromogenic substrate of the β-galactosidase.
Following damage to the inner membrane, OPNG enters the cells and is metabolized by β-galactosidase creating a chromogenic […]. E. coli cells were washed in 10 mM sodium phosphate (pH 7.4) containing 100 mM NaCl and resuspended in the same buffer at a final concentration of OD600 = 0.5 containing 1.5 mM ONPG. The hydrolysis of ONPG and generation of o-nitrophenol over time were monitored as absorbance change at 405 nm following the addition of peptoids. […]

[5] = Table S3, counter-ion exchange series (TFA, HCl, AcOH salts)
[6] = Table S3, counter-ion exchange series, mean of triplicate
[7] = Table S3, counter-ion exchange series, 10% hemolysis in rat erythrocytes, mean of triplicate
[8] = Table S3, counter-ion exchange series, 50% hemolysis in rat erythrocytes, mean of triplicate
[9] = Table S3, counter-ion exchange series, hemolysis at 100 µM
[10] = Table S2, broth dilution, MHB2, 37 °C 24 h, max 25 µM
[11] = Table S2, broth dilution, MHB2, 37 °C 24 h, max 25 µM, mean of triplicate

SMILES | MIC E. coli ATCC25922 (E. coli ATCC 25922 [1]; [5]) | MIC S. aureus ATCC25923 (S. aureus ATCC 25923; [6]) | HC10 (rat erythrocytes; [7]) | HC50 (rat erythrocytes; [8]) | Hmax (100 µM) (rat erythrocytes; [9]) | LC50 MRC-5 [2] | HPLC elution (%ACN) [3] | MIC E. coli ATCC25922 (E. coli ATCC 25922 [1]; [10]) | MIC S. aureus ATCC25923 (S. aureus ATCC 25923; ATCC 25923) | MIC S. aureus ATCC25923 (S. aureus ATCC 25923; [11]) | H max (100 µM) (rat erythrocytes) | Hmax (100 µM) (rat erythrocytes) | HC10 (rat erythrocytes; red cells of rat) | HC50 (rat erythrocytes; red cells of rat) | MIC E. faecium KCTC 13225 (E. faecium KCTC 13225) | MIC E. faecalis KCTC 3511 (E. faecalis KCTC 3511) | MIC S. typhimurium SL 1344 (S. typhimurium SL 1344) | outer membrane disruption (NPN uptake) (E. coli ATCC 25922 [4]) | inner membrane disruption (ONPG hydrolysis) (E. coli ML-35 cells) | also measured
C[C@@H](c1ccccc1)N(CC(N)=O)C(=O)CN(C(=O)CN(CCCCN)C(=O)CN(C(=O)CN(C(=O)CN(CCCCN)C(=O)CN(C(=O)CN(C(=O)CN(CCCCN)C(=O)CN(C(=O)CN(C(=O)CNCCCCN)[C@@H](C)c1ccccc1)[C@@H](C)c1ccccc1)[C@@H](C)c1ccccc1)[C@@H](C)c1ccccc1)[C@@H](C)c1ccccc1)[C@@H](C)c1ccccc1)[C@@H](C)c1ccccc1 [1-AcOH] (H-[Nlys][Nspe][Nspe][Nlys][Nspe][Nspe][Nlys][Nspe][Nspe][Nlys][Nspe][Nspe]-NH2) | 12.5 µM | 3.1 µM (≈ 5.64 µg/mL) | 25.0 µM | 78.6 µM | 58.2±1.7% | 8.6 µM |  |  |  |  |  |  |  |  |  |  |  |  |  | 
C[C@@H](c1ccccc1)N(CC(N)=O)C(=O)CN(C(=O)CN(CCCCN)C(=O)CN(C(=O)CN(C(=O)CN(CCCCN)C(=O)CN(C(=O)CN(C(=O)CN(CCCCN)C(=O)CN(C(=O)CN(C(=O)CNCCCCN)[C@@H](C)c1ccccc1)[C@@H](C)c1ccccc1)[C@@H](C)c1ccccc1)[C@@H](C)c1ccccc1)[C@@H](C)c1ccccc1)[C@@H](C)c1ccccc1)[C@@H](C)c1ccccc1 [1-HCl] (H-[Nlys][Nspe][Nspe][Nlys][Nspe][Nspe][Nlys][Nspe][Nspe][Nlys][Nspe][Nspe]-NH2) | 6.3 µM | 1.6 µM | 27.6 µM | 83.3 µM | 61.5±0.9% | 11.8 µM |  |  |  |  |  |  |  |  |  |  |  |  |  | 
C[C@@H](c1ccccc1)N(CC(N)=O)C(=O)CN(C(=O)CN(CCCCN)C(=O)CN(C(=O)CN(C(=O)CN(CCCCN)C(=O)CN(C(=O)CN(C(=O)CN(CCCCN)C(=O)CN(CCc1c[nH]c2ccccc12)C(=O)CN(C(=O)CNCCCCN)[C@@H](C)c1ccccc1)[C@@H](C)c1ccccc1)[C@@H](C)c1ccccc1)[C@@H](C)c1ccccc1)[C@@H](C)c1ccccc1)[C@@H](C)c1ccccc1 [peptoid 10] | 3.1 µM |  |  |  |  |  | 54.9 %ACN | 3.1 µM (≈ 5.76 µg/mL) | 0.8 µM (≈ 1.49 µg/mL) | 1.6 µM (≈ 2.97 µg/mL) | 108.1 ± 1.7% | 101.4±5.1% | 6.9 µM | 25.8 µM | 12.5 µM (≈ 23.2 µg/mL) | 12.5 µM (≈ 23.2 µg/mL) | 12.5 µM (≈ 23.2 µg/mL) | strongly disrupted | strongly disrupted | HC10 (rat erythrocytes; pH 7.4): 6.6 µM; HC50 (rat erythrocytes; pH 7.4): 17.0 µM
C[C@@H](c1ccccc1)N(CC(N)=O)C(=O)CN(C(=O)CN(CCCCN)C(=O)CN(C(=O)CN(C(=O)CN(CCCCN)C(=O)CN(C(=O)CN(C(=O)CN(CCCCN)C(=O)CN(CCc1c[nH]c2ccccc12)C(=O)CN(CCc1c[nH]c2ccccc12)C(=O)CNCCCCN)[C@@H](C)c1ccccc1)[C@@H](C)c1ccccc1)[C@@H](C)c1ccccc1)[C@@H](C)c1ccccc1)[C@@H](C)c1ccccc1 [peptoid 14] | 3.1 µM |  |  |  |  |  | 55.6 %ACN | 3.1 µM (≈ 5.88 µg/mL) | 1.6 µM (≈ 3.04 µg/mL) | < 0.8 µM | 90.0 ± 7.3% | 112.9±2.1% | 12.5 µM | 21.1 µM | <0.8 µM | 1.6 µM (≈ 3.04 µg/mL) | 12.5 µM (≈ 23.7 µg/mL) | strongly disrupted | strongly disrupted | 
